Reference: the NIST ThermoML archive (doi:10.1021/je050399c)

Details: Fluid (supercritical or subcritical phases), Vibrating wire viscometry

N#N [nitrogen]
viscosity [mPa·s]
Details	298.15 K	323.15 K
100 kPa	0.01778	0.0189
150 kPa	0.01779	–
200 kPa	0.01781	–
200.1 kPa	–	0.01893
250 kPa	0.01782	–
300.1 kPa	0.01782	0.01895
350.1 kPa	0.01784	–
400 kPa	0.01784	–
400.1 kPa	–	0.01896
450.1 kPa	0.01784	–
500.1 kPa	0.01785	–
600.1 kPa	0.01786	0.01898
700.1 kPa	0.01787	–
800.1 kPa	0.01789	–
800.3 kPa	–	0.019
900.1 kPa	0.0179	–
1000.2 kPa	0.01792	–
1000.6 kPa	–	0.01903
1100.2 kPa	0.01793	–
1200.1 kPa	0.01795	–
1300.1 kPa	0.01796	–
1400.1 kPa	0.01797	–
1500.1 kPa	0.01798	–
1500.7 kPa	–	0.0191
1599.9 kPa	0.018	–
1700 kPa	0.01801	–
1800.1 kPa	0.01803	–
1899.9 kPa	0.01805	–
2000.4 kPa	0.01806	–
2000.7 kPa	–	0.01917
2250 kPa	0.0181	–
2500.3 kPa	0.01815	–
2750.4 kPa	0.01818	–
3000.9 kPa	0.01822	–
3250.3 kPa	0.01825	–
3500.7 kPa	0.01831	–
3750.7 kPa	0.01835	–
4001 kPa	0.01841	–
4250.5 kPa	0.01846	–
4499.8 kPa	0.01851	–
4749.9 kPa	0.01858	–
5000.5 kPa	0.01861	–
5500.9 kPa	0.01872	–
6005.4 kPa	0.01884	–
6500.4 kPa	0.01897	–
7002.5 kPa	0.01909	–
7501.6 kPa	0.01921	–
8000.9 kPa	0.01934	–
8500.9 kPa	0.01947	–
8999.3 kPa	0.01961	–
9499.4 kPa	0.01973	–
10001 kPa	0.01988	–
11005 kPa	0.02018	–
12002 kPa	0.02047	–
13004 kPa	0.02079	–
14004 kPa	0.0211	–
15006 kPa	0.02142	–
16001 kPa	0.02176	–
17010 kPa	0.02211	–
18008 kPa	0.02247	–
19006 kPa	0.02284	–
20005 kPa	0.02318	–
21000 kPa	0.02354	–
22001 kPa	0.02391	–
23008 kPa	0.02429	–
24003 kPa	0.02466	–
25014 kPa	0.02503	–
26005 kPa	0.02541	–
27010 kPa	0.02581	–
28009 kPa	0.0262	–
29013 kPa	0.02657	–
30010 kPa	0.02695	–
31009 kPa	0.02735	–
31995 kPa	0.02774	–
33004 kPa	0.02814	–
33949 kPa	0.02852	–
35027 kPa	0.02893	–
